US20210189342A1, “COMPOSITIONS AND METHODS FOR MODULATING MONOCYTE AND MACROPHAGE INFLAMMATORY PHENOTYPES AND IMMUNOTHERAPY USES THEREOF” (Verseau Therapeutics, Inc., priority 2018, published 2021)

Tested on: SIGLEC9
Experiment: siRNA dose response, SIGLEC9 mRNA knockdown, Dual-Glo Luciferase Assay
Type: cell-based, human
Conditions: Hepa1-6 + reporter plasmid, 24 hr
Experimental: (§1) Dose response curves for siRNAs were generated in vitro using a variety of cell lines according to Table 4.
(§2) Briefly, cells were seeded in 96-well plates and reverse transfected with siRNA, Lipofectamine® 2000 (0.5 uL/well; ThermoFisher), and, in some cases, a reporter plasmid (50 ng/well). The reporter plasmid (psiCHECK™-2, Promega) encoded both firefly luciferase and the gene of interest fused to renilla luciferase; silencing of the gene of interest results in proportional silencing of renilla luciferase but leaves firefly luciferase unaffected as an internal control.
(§3) After 24 hr incubation at 37° C., mRNA knockdown was measured using an endpoint assay. For targets without a reporter plasmid, a branched DNA (bDNA) assay was performed according to the manufacturer's instructions (QuantiGene® Singleplex Gene Expression Assay, ThermoFisher) to measure both the target gene and GAPDH (housekeeping gene) mRNA. Data are plotted as siRNA concentration (nM) vs. remaining mRNA (ratio of target gene to GAPDH, normalized to mock siRNA-transfected cells). For targets with a reporter plasmid, a Dual-Glo® Luciferase Assay was performed according to the manufacturer's instructions (Promega) to measure firefly and renilla luciferase expression. Data are plotted as siRNA concentration (nM) vs. remaining mRNA (ratio of renilla to firefly luminescence, normalized to mock siRNA-transfected cells).
(§4) For all dose response curves, a 4-parameter logistic model was applied to determine the IC50 of each siRNA sequence (Table 5 and FIG. 2). Data shown in Table 5 and FIG. 2 represent the mean of quadruplicates, +/−standard deviation.

| Substance | IC50 [pM] |
| --- | --- |
| XD-09181: siRNA targeting SIGLEC9 (sense 5'-guAAAcuGcuGAcgAuGcAdTsdT-3'; antisense 5'-UGcAUCGUcAGcAGUUuACdTsdT-3'; RNA with 2'-O-methyl and phosphorothioate modifications, case key not given here, as printed in the source, key not given here) | 286 |
| XD-09189: siRNA targeting SIGLEC9 (sense 5'-agAccGuccAucucAAcGudTsdT-3'; antisense 5'-ACGUUGAGAUGGACGGUCUdTsdT-3'; RNA with 2'-O-methyl and phosphorothioate modifications, case key not given here, as printed in the source, key not given here) | 694 |
| XD-09192: siRNA targeting SIGLEC9 (sense 5'-caGuAuccAcAGucuuGGGdTsdT-3'; antisense 5'-CCcAAGACUGUGGAuACUGdTsdT-3'; RNA with 2'-O-methyl and phosphorothioate modifications, case key not given here, as printed in the source, key not given here) | 236 |
| XD-09187: siRNA targeting SIGLEC9 (sense 5'-gaccAcGaacAAGaccGucdTsdT-3'; antisense 5'-GACGGUCUUGUUCGUGGUCdTsdT-3'; RNA with 2'-O-methyl and phosphorothioate modifications, case key not given here, as printed in the source, key not given here) | 406 |
| XD-09193: siRNA targeting SIGLEC9 (sense 5'-guAuccAcAGucuuGGGAAdTsdT-3'; antisense 5'-UUCCcAAGACUGUGGAuACdTsdT-3'; RNA with 2'-O-methyl and phosphorothioate modifications, case key not given here, as printed in the source, key not given here) | 459 |
| XD-09190: siRNA targeting SIGLEC9 (sense 5'-ccGuccAucucAAcGuGucdTsdT-3'; antisense 5'-GAcACGUUGAGAUGGACGGdTsdT-3'; RNA with 2'-O-methyl and phosphorothioate modifications, case key not given here, as printed in the source, key not given here) | 905 |
| XD-09185: siRNA targeting SIGLEC9 (sense 5'-ccAGAAGAAGuGAuGcGGGdTsdT-3'; antisense 5'-CCCGcAUcACUUCUUCUGGdTsdT-3'; RNA with 2'-O-methyl and phosphorothioate modifications, case key not given here, as printed in the source, key not given here) | 94 |
| XD-09188: siRNA targeting SIGLEC9 (sense 5'-gaAcAAGAccGuccAucucdTsdT-3'; antisense 5'-GAGAUGGACGGUCUUGUUCdTsdT-3'; RNA with 2'-O-methyl and phosphorothioate modifications, case key not given here, as printed in the source, key not given here) | 148 |
| XD-09186: siRNA targeting SIGLEC9 (sense 5'-ucAccGGcucucuguGAAudTsdT-3'; antisense 5'-AUUcAcAGAGAGCCGGUGAdTsdT-3'; RNA with 2'-O-methyl and phosphorothioate modifications, case key not given here, as printed in the source, key not given here) | 488 |
| XD-09184: siRNA targeting SIGLEC9 (sense 5'-ggGccAAuAcAGAccAGGAdTsdT-3'; antisense 5'-UCCUGGUCUGuAUUGGCCCdTsdT-3'; RNA with 2'-O-methyl and phosphorothioate modifications, case key not given here, as printed in the source, key not given here) | 127 |
| XD-09183: siRNA targeting SIGLEC9 (sense 5'-guuccGGGAAGGGgccAAudTsdT-3'; antisense 5'-AUUGGCCCCUUCCCGGAACdTsdT-3'; RNA with 2'-O-methyl and phosphorothioate modifications, case key not given here, as printed in the source, key not given here) | 229 |
| XD-09197: siRNA targeting SIGLEC9 (sense 5'-ggAGAuAcGGGcAuAGAGGdTsdT-3'; antisense 5'-CCUCuAUGCCCGuAUCUCCdTsdT-3'; as printed in the source, key not given here) | 851 |
| XD-09180: siRNA targeting SIGLEC9 (sense 5'-acAAGuAAAcuGcuGacGAdTsdT-3'; antisense 5'-UCGUcAGcAGUUuACUUGUdTsdT-3'; RNA with 2'-O-methyl and phosphorothioate modifications, case key not given here, as printed in the source, key not given here) | 40 |
| XD-09194: siRNA targeting SIGLEC9 (sense 5'-cucAGcAGGucuAccuGAAdTsdT-3'; antisense 5'-UUcAGGuAGACCUGCUGAGdTsdT-3'; RNA with 2'-O-methyl and phosphorothioate modifications, case key not given here, as printed in the source, key not given here) | 5630 |
| XD-09195: siRNA targeting SIGLEC9 (sense 5'-gcGuGGGAGAuAcgGGcAudTsdT-3'; antisense 5'-AUGCCCGuAUCUCCcACGCdTsdT-3'; as printed in the source, key not given here) | 125 |
| XD-09182: siRNA targeting SIGLEC9 (sense 5'-ucGcAuGGcuGGAuuuAccdTsdT-3'; antisense 5'-GGuAAAUCcAGCcAUGCGAdTsdT-3'; RNA with 2'-O-methyl and phosphorothioate modifications, case key not given here, as printed in the source, key not given here) | 837 |

Tested on: CD84
Experiment: siRNA dose response, CD84 mRNA knockdown, Dual-Glo Luciferase Assay
Type: cell-based, human
Conditions: Hepa1-6 + reporter plasmid, 24 hr
Experimental: as §1, §2, §3, §4

| Substance | IC50 [pM] |
| --- | --- |
| XD-09617: siRNA targeting CD84 (sense 5'-cacuAcAGuuAAcgcuGAAdTsdT-3'; antisense 5'-UUcAGCGUuAACUGuAGUGdTsdT-3'; as printed in the source, key not given here) | 10 |
| XD-09610: siRNA targeting CD84 (sense 5'-accAAAAAuuAcAcAGAGudTsdT-3'; antisense 5'-ACUCUGUGuAAUUUUUGGUdTsdT-3'; as printed in the source, key not given here) | 47 |
| XD-09612: siRNA targeting CD84 (sense 5'-gguAAuGuccuucaAAucudTsdT-3'; antisense 5'-AGAUUUGAAGGAcAUuACCdTsdT-3'; as printed in the source, key not given here) | 351 |
| XD-09619: siRNA targeting CD84 (sense 5'-ccuuAcAGcAuAAcuAAuudTsdT-3'; antisense 5'-AAUuAGUuAUGCUGuAAGGdTsdT-3'; RNA with 2'-O-methyl and phosphorothioate modifications, case key not given here, as printed in the source, key not given here) | < 5 |
| XD-09613: siRNA targeting CD84 (sense 5'-ucAuAuGAucAuuuAAGGAdTsdT-3'; antisense 5'-UCCUuAAAUGAUcAuAUGAdTsdT-3'; RNA with 2'-O-methyl and phosphorothioate modifications, case key not given here, as printed in the source, key not given here) | 241 |
| XD-09611: siRNA targeting CD84 (sense 5'-gaGGGuAAuGuccuucAAAdTsdT-3'; antisense 5'-UUUGAAGGAcAUuACCCUCdTsdT-3'; as printed in the source, key not given here) | 82 |
| XD-09615: siRNA targeting CD84 (sense 5'-ggAAcuGGGuAuAauccAAdTsdT-3'; antisense 5'-UUGGAUuAuACCcAGUUCCdTsdT-3'; as printed in the source, key not given here) | 48 |
| XD-09618: siRNA targeting CD84 (sense 5'-gguAucAGGAAucaAAAuudTsdT-3'; antisense 5'-AAUUUUGAUUCCUGAuACCdTsdT-3'; as printed in the source, key not given here) | < 5 |
| XD-09614: siRNA targeting CD84 (sense 5'-gaAcAcAGuuuAuuccGAAdTsdT-3'; antisense 5'-UUCGGAAuAAACUGUGUUCdTsdT-3'; as printed in the source, key not given here) | < 5 |
| XD-09616: siRNA targeting CD84 (sense 5'-gcAccAAcuAccAuuAGcAdTsdT-3'; antisense 5'-AGCuAAUGGuAGUUGGUGCdTsdT-3'; RNA with 2'-O-methyl and phosphorothioate modifications, case key not given here, as printed in the source, key not given here) | 67 |
